The target in assay [1] is T1, Sialidase-3 (Homo sapiens, UniProt Q9UQ49).
T1 sequence (Q9UQ49 whole entry): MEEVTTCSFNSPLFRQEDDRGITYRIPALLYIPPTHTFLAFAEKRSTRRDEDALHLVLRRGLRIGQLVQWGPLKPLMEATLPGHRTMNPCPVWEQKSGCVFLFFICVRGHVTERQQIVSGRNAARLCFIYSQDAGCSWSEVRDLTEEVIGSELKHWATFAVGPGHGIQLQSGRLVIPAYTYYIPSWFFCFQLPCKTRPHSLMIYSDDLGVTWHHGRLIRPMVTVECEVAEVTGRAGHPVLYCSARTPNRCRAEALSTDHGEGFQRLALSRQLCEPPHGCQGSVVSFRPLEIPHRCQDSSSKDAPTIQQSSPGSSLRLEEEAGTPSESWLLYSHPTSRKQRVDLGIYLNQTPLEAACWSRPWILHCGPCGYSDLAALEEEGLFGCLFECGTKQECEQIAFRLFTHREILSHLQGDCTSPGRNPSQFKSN
Description: Inhibition of human NEU3 expressed in HEK293A cells as substrate incubated for 1 hr by spectrofluorometric analysis. Set-up: species or system HEK293.

A short description of assay [2]: Inhibition of Newcastle disease virus neuraminidase using 4-MUNeu5Ac as substrate incubated for 15 mins by spectrofluorometric analysis. Also on record: species or system avian paramyxovirus 1.

Structures are written as SMILES.

Usually IC50 stands for the midpoint of a concentration-inhibition curve.

On to `CCCCCCCCS[C@@]1(C(=O)O)C=C[C@@H](NC(C)=O)[C@H]([C@H](O)[C@H](O)CO)O1`, for which the results for the IC50 in assay [1] and in assay [2] were greater than 1000 µM and 406 µM, respectively.

Turning to `CO[C@]1(C(=O)O)C=C[C@@H](NC(C)=O)[C@H]([C@H](O)[C@H](O)CO)O1`, the IC50 in assay [1] and in assay [2] was greater than 1000 µM each time.

Turning to `O=C(O)C1=C[C@H](O)[C@@H](NC(=O)C(F)(F)F)[C@H]([C@H](O)[C@H](O)CO)O1`, the figures for the IC50 in assay [1] and in assay [2] were 3.9 µM and 2.45 µM, respectively.

Regarding `CC(=O)N[C@@H]1C=C[C@@](OC(C)C)(C(=O)O)O[C@H]1[C@H](O)[C@H](O)CO`, the IC50 in assay [1] is greater than 1000 µM; in assay [2], 148 µM.

As to `CC(=O)N[C@@H]1C=C[C@](OC(C)C)(C(=O)O)O[C@H]1[C@H](O)[C@H](O)CO`, the IC50 was greater than 1000 µM in assay [1] and 511 µM in assay [2].

With `CCS[C@]1(C(=O)O)C=C[C@@H](NC(C)=O)[C@H]([C@H](O)[C@H](O)CO)O1`, the IC50 is greater than 1000 µM in assay [1] and 100 µM in assay [2].

`[N-]=[N+]=N[C@H]1C=C(C(=O)O)O[C@@H]([C@H](O)[C@H](O)CO)[C@@H]1NC(=O)C(F)(F)C(F)(F)C(F)(F)F` returned a 50% inhibitory concentration (IC50) in assay [2] of 0.213 µM.

With `CCS[C@@]1(C(=O)O)C=C[C@@H](NC(C)=O)[C@H]([C@H](O)[C@H](O)CO)O1`, the IC50 in assay [1] was greater than 1000 µM; in assay [2], 248 µM.

As for `CCCO[C@@]1(C(=O)O)C=C[C@@H](NC(C)=O)[C@H]([C@H](O)[C@H](O)CO)O1`, the IC50 in assay [1] was greater than 1000 µM; in assay [2], 512 µM.

As to `CCCCO[C@@]1(C(=O)O)C=C[C@@H](NC(C)=O)[C@H]([C@H](O)[C@H](O)CO)O1`, the IC50 in assay [1] is greater than 1000 µM; in assay [2], 485 µM.

Regarding `CCO[C@@]1(C(=O)O)C=C[C@@H](NC(C)=O)[C@H]([C@H](O)[C@H](O)CO)O1`, the values for the IC50 in assay [1] and in assay [2] were greater than 1000 µM and 384 µM, respectively.

For the compound `CO[C@@]1(C(=O)O)C=C[C@@H](NC(C)=O)[C@H]([C@H](O)[C@H](O)CO)O1`, the IC50 in assay [1] and in assay [2] was greater than 1000 µM each time.

Turning to `CC(=O)N[C@H]1[C@H]([C@H](O)[C@H](O)CO)OC(C(=O)O)=C[C@@H]1O` [NEU5AC2EN], the IC50 in assay [1] was found to be 2.4 µM; in assay [2], 13 µM.

The values are drawn from ChEMBL document CHEMBL4725258, “2β-3,4-Unsaturated sialic acid derivatives: Synthesis optimization, and biological evaluation as Newcastle disease virus hemagglutinin-neuraminidase inhibitors” (Bioorg Med Chem, 2020).
